Article PMC11161652, “ASXLs binding to the PHD2/3 fingers of MLL4 provides a mechanism for the recruitment of BAP1 to active enhancers” (Nature Communications, 2024)
pKd: −log10 of the molar value. Ends that are not written are not given here.

Key:
[1] = target: T1, MLL4PHD2/3 K274E (Homo sapiens, UniProt O14686, K274E); test: NMR titration binding, K274E MLL4PHD2/3; conditions: 1H,15N HSQC titration, 0.1 mM protein, 20 mM Tris pH 6.8, 150 mM NaCl, 298 K
T1 construct: MLL4 (aa 227-324); GST (N, cleaved yes); made in house; host or cells: E. coli BL21-CodonPlus
T1 sequence (O14686 227-324 K274E): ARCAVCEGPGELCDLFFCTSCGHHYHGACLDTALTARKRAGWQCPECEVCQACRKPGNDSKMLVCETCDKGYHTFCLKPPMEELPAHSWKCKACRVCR
Procedure: (§1) All constructs were expressed in BL21-CodonPlus competent cells.
(§2) For NMR titration experiments, ^1H,^15N HSQC spectra of 0.1 mM uniformly ^15N-labeled WT or mutated MLL4PHD2/3, MLL3PHD2/3 or MLL3PHD4 were recorded while WT or mutated ASXL2 (aa 650-670, 650-664, 656-670) and ASXL3 (aa 1047-1067) peptides (synthesized by SynPeptide) or MLL3PHD2/3 were added stepwise. All experiments were carried out in 20 mM Tris buffer (pH 6.8), 150 mM NaCl, and 3 mM DTT, containing 7% D2O. The dissociation constants (Kds) were determined by a nonlinear least-squares analysis in GraphPad Prism using the equation:1 △δ=△δmaxL+P+Kd−L+P+Kd^2−4PL/2P where [L] is concentration of the peptide, [P] is concentration of the protein, Δδ is the observed chemical shift change, and Δδmax is the normalized chemical shift change at saturation. Normalized chemical shift changes were calculated using the equation Δδ=△δH^2+△sn/5^2 (2), where Δδ is the change in chemical shift in parts per million (ppm).

[2] = target: T2, MLL4PHD2/3 V290K (Homo sapiens, UniProt O14686, V290K); test: NMR titration binding, V290K MLL4PHD2/3; conditions: 1H,15N HSQC titration, 0.1 mM protein, 20 mM Tris pH 6.8, 150 mM NaCl, 298 K
T2 construct: MLL4 (aa 227-324); GST (N, cleaved yes); made in house; host or cells: E. coli BL21-CodonPlus
T2 sequence (O14686 227-324 V290K): as the sequence (O14686 227-324 K274E) above, with E48K, V64K counted along it
Procedure: as §1, §2

[3] = target: T3, MLL3PHD2/3 D372K/D400K (Homo sapiens, UniProt Q8NEZ4, D372K/D400K); test: NMR titration binding, D372K/D400K MLL3PHD2/3; conditions: 1H,15N HSQC titration, 0.1 mM protein, 20 mM Tris pH 6.8, 150 mM NaCl, 298 K
T3 construct: human MLL3 (aa 342-439); GST (N, cleaved yes); made in house; host or cells: E. coli BL21-CodonPlus
T3 sequence (Q8NEZ4 342-439 D372K/D400K): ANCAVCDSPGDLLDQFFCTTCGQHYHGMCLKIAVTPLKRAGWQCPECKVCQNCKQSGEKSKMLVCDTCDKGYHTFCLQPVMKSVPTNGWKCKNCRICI
Procedure: as §1, §2

[4] = target: T4, MLL4PHD2/3 D257K/D285K (Homo sapiens, UniProt O14686, D257K/D285K); test: NMR titration binding, D257K/D285K MLL4PHD2/3; conditions: 1H,15N HSQC titration, 0.1 mM protein, 20 mM Tris pH 6.8, 150 mM NaCl, 298 K
T4 construct: MLL4 (aa 227-324); GST (N, cleaved yes); made in house; host or cells: E. coli BL21-CodonPlus
T4 sequence (O14686 227-324 D257K/D285K): as the sequence (O14686 227-324 K274E) above, with D31K, E48K, D59K counted along it
Procedure: as §1, §2

[5] = target: T5, MLL4PHD2/3 D285K (Homo sapiens, UniProt O14686, D285K); test: NMR titration binding, D285K MLL4PHD2/3; conditions: 1H,15N HSQC titration, 0.1 mM protein, 20 mM Tris pH 6.8, 150 mM NaCl, 3 mM DTT, 7% D2O, 298 K, mean ± SD, n = 3
T5 construct: MLL4 (aa 227-324); GST (N, cleaved yes); made in house; host or cells: E. coli BL21-CodonPlus
T5 sequence (O14686 227-324 D285K): as the sequence (O14686 227-324 K274E) above, with E48K, D59K counted along it
Procedure: as §1
Normalized chemical shift changes were calculated using the equation Δδ=△δH^2+△sn/5^2 (2), where Δδ is the change in chemical shift in parts per million (ppm).

[6] = target: T6, MLL4PHD2/3 L256K (Homo sapiens, UniProt O14686, L256K); test: NMR titration binding, L256K MLL4PHD2/3; conditions: 1H,15N HSQC, 0.1 mM protein, 20 mM Tris pH 6.8, 298 K
T6 construct: MLL4 (aa 227-324); GST (N, cleaved yes); made in house; host or cells: E. coli BL21-CodonPlus
T6 sequence (O14686 227-324 L256K): as the sequence (O14686 227-324 K274E) above, with L30K, E48K counted along it
Procedure: as §1, §2

Kd [1]: no binding | Kd [2]: no binding | Kd [3]: no binding | Kd [4]: no binding | pKd [5]: 2.77 | Kd [6]: unfolded
Sequence: NRTGARTLADIKAKAQLVKAQ [ASXL2 650-670]
